Among the data in paper PMC5065108 (Molecular cancer therapeutics, 2016) are IC50 values, retold here.

The target of assay [1] is p210 BCR-ABL (wild type) (Homo sapiens, UniProt P00519). The assay can be described thus: Western blot of phospho-c-ABL. The assay is classed as cell-based. A general note: A western blot detects proteins with antibodies after separation by electrophoresis.
The target in assay [2] is p210 BCR-ABL T315I (p210^T315I) (Homo sapiens, UniProt P00519, T315I). As to the kind of experiment: Western blot of phospho-c-ABL. The assay is classed as cell-based.

A word on the IC50: it is the concentration at which inhibition is half-maximal. In the case of `Cc1cnc(Nc2ccc(N3CCN(C)CC3)cc2)nc1Nc1cccc(S(=O)(=O)NC(C)(C)C)c1` [TG101209], the half-maximal inhibitory concentration (IC50) was 2.5 µM in assay [1] and 17.5 µM in assay [2].
